Literature values as cited in patent US20140316534A1, “STENT” (Photocure ASA, priority 2011, published 2014).

Tested on: dysplastic tissue in Barrett's esophagus
[1] = systemic application, higher doses of 20 mg/kg and 30 mg/kg

In the case of `NCC(=O)CCC(=O)O` [5-ALA, 5-amino-4-oxo-pentanoic acid], the side effects (systemic application of 20 mg/kg or more) is given as “increasing side effects at high dosages”, the “sensitivity for detection of dysplastic tissue” value [1] is given as “increase the sensitivity” and the “specificity (rate of false positive fluorescence)” value [1] is given as “poor”.
